Consider five compounds from patent publication US20220033407A1, “N-(pyridin-2-ylsulfonyl)cyclopropanecarboxamide Derivatives and their Use in the Treatment of Disease” (NOVARTIS AG, priority 2018, published 2022).

For assay [1], the target named is T1, delF508-CFTR-HRP (Homo sapiens, UniProt P13569, DEL508-508).
T1 construct: expressed in transfected cells
Kind of assay: Measurement of delF508-CFTR-HRP surface expression in CFBE41o- cells (HRP luminescence).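 On DelF508-CFTR-HRP Amax %: percent efficacy relative to a reference CFTR corrector compound.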 The format is cell-based. The following applies: for Emax: CFBE41o-, read-out: DelF508-CFTR-HRP Amax %; for pEC50: mean of at least two replicates. In a few lines:
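EC50 derived by logistic regression of triplicate surface-HRP luminescence, plate-normalized to the lowest-concentration median. Doxycycline (500 ng/mL, 48 h) induced delF508-CFTR-HRP in CFBE41o- cells; compounds then applied 24 h at 37° C, 10 μM top, 3-fold over 10 points.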

Assay [2] concerns the target T2, delF508-CFTR (Homo sapiens, UniProt P13569, DEL508-508).
T2 construct: functional activity of the CFTR channel (Chloride ion transport) in patient derived primary human bronchial epithelial cells; host or cells: patient-derived primary human bronchial epithelial cells (HBECs), delF508-CFTR
Kind of assay: delF508-CFTR functional activity in primary human bronchial epithelial cells (HBECs), Multi-Transepithelial Clamp Circuit (MTECC-24) assay, equivalent short circuit current. The format is cell-based. The following applies: primary CF HBECs; for MTECC24 CFHBEC-Amax %: relative to reference combination 2 μM 3-(6-(1-(2,2-difluorobenzo[d][1,3]dioxol-5-yl)cyclopropane-1-carboxamido)-3-methylpyridin-2-yl)benzoic acid (24 h) + 0.5 μM N-(2,4-di-tert-butyl-5-hydroxyphenyl)-4-oxo-1,4-dihydroquinoline-3-carboxamide; for pEC50: test compound added 24 h before assay, potentiator (S)-3-amino-6-methoxy-N-(3,3,3-trifluoro-2-hydroxy-2-methylpropyl)-5-(trifluoromethyl)picolinamide present at assay, mean of at least two replicates, read-out: MTECC24 CFHBEC-EC50. In a few lines:
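Compound acted as corrector on differentiated primary delF508-CFTR bronchial cultures, first 24 h basolaterally, then 45 min both sides before reading. Equivalent short circuit current was recorded during sequential forskolin and potentiator addition. EC50 came from 10-point, 1-in-3 dilution curves against the 0.1% DMSO baseline.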

pEC50: −log10 of the molar value.

T2 sequence (P13569 with tags, fused parts or gaps DEL508-508): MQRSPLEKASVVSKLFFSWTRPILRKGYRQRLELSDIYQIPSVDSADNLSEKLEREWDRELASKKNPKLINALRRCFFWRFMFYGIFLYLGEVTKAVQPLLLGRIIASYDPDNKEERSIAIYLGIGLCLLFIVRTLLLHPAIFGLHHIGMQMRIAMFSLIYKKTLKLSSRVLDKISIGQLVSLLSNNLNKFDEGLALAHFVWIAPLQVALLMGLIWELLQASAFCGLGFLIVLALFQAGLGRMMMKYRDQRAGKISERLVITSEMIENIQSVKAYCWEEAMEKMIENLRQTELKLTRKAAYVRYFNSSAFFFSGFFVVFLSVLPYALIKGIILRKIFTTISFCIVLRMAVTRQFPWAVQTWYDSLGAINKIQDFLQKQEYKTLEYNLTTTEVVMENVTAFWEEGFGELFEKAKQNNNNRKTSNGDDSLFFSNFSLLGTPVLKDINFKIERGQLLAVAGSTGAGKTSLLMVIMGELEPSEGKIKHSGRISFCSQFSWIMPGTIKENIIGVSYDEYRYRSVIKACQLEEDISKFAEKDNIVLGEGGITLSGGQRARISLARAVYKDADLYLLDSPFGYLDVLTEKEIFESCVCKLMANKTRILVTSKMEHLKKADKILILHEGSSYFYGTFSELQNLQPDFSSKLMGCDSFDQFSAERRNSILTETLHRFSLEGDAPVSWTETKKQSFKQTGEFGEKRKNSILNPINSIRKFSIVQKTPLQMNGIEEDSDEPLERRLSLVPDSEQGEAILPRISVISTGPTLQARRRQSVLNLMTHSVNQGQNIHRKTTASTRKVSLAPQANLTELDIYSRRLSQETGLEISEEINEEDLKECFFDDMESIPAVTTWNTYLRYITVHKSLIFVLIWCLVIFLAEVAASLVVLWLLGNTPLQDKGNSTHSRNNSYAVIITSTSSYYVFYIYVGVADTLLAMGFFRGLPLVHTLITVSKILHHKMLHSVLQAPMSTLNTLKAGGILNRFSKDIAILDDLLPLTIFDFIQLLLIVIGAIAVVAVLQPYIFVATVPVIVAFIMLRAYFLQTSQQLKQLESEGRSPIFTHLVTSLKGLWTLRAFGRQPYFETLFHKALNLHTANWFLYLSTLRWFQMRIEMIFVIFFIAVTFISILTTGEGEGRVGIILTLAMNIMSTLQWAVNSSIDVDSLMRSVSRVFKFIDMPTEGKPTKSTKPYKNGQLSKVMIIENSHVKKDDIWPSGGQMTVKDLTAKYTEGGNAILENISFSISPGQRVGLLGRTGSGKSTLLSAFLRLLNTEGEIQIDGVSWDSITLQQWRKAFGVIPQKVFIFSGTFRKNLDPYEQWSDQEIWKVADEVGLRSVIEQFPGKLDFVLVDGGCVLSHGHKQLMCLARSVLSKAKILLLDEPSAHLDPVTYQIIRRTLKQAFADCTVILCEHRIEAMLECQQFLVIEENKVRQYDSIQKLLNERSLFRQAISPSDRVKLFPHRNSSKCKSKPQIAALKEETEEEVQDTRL
T1 sequence (P13569 with tags, fused parts or gaps DEL508-508): as above

By pEC50 is commonly meant −log10 of the EC50, conventionally taken in molar units. Consider `Cc1ccc(C2CC2)c(OC2(C(=O)NS(=O)(=O)c3cccc(NC[C@H](C)O)n3)CC2)c1` [Example 4-14, (S)-1-(2-Cyclopropyl-5-methylphenoxy)-N-((6-((2-hydroxypropyl)amino)pyridin-2-yl)sulfonyl)cyclopropane-1-carboxamide], for which, in assay [1], the Emax came out at 119% and the pEC50 was 5.44. Besides, in assay [2], the “MTECC24 CFHBEC-Amax %” value was 57% and the pEC50 is 6.96.
In the case of `Cc1ccc(C2CCCCC2)c(OC2(C(=O)NS(=O)(=O)c3cccc(N4CCC(CO)(NC(=O)OC(C)(C)C)CC4)n3)CC2)c1` [Example 2-22, Tert-butyl (1-(6-(N-(1-(2-cyclohexyl-5-methylphenoxy)cyclopropanecarbonyl)sulfamoyl)pyridin-2-yl)-4-(hydroxymethyl)piperidin-4-yl)carbamates], in assay [1], the Emax worked out at 674% and the pEC50 is 5.65. Besides, in assay [2], the “MTECC24 CFHBEC-Amax %” value came out at 90% and the pEC50 was 7.77.
In the same order, the values of `Cc1ccc(C2CCCCC2)c(OC2(C(=O)NS(=O)(=O)c3cccc(NC[C@@H](C)O)n3)CC2)c1` [Example 2-46, (R)-1-(2-cyclohexyl-5-methylphenoxy)-N-((6-((2-hydroxypropyl)amino)pyridin-2-yl)sulfonyl)cyclopropane-1-carboxamide] are 813%, 5.54, 89% and 8.52.
For `Cc1ccc(C2CCCCC2)c(OC2(C(=O)NS(=O)(=O)c3cccc(N4CCO[C@H](C)C4)n3)CC2)c1` [Example 2-53, (R)-1-(2-Cyclohexyl-5-methylphenoxy)-N-((6-(2-methylmorpholino)pyridin-2-yl)sulfonyl)cyclopropane-1-carboxamide], in assay [1], the Emax was 416% and the pEC50 is 5.80. Also, in assay [2], the “MTECC24 CFHBEC-Amax %” value is on record as 82% and the pEC50 is 8.70.
In the same order, the values of `Cc1ccc(C2CCCCC2)c(OC2(C(=O)NS(=O)(=O)c3cccc(N4CCC(C)(C(N)=O)CC4)n3)CC2)c1` [Example 2-14, 1-(6-(N-(1-(2-cyclohexyl-5-methylphenoxy)cyclopropanecarbonyl)sulfamoyl)pyridin-2-yl)-4-methylpiperidine-4-carboxamide] are 319%, 5.56, 75% and 7.51.
